The values below come from patent US8034948B2, “Method for resolving omeprazole salts” (Universite de Rouen, priority 2007, dated 2011).

The nature of series [1]: Stability of the potassium salt solvates (ambient atmosphere / alcoholic medium with excess potassium hydroxide). Format: physicochemical.
The next series is described as follows: Solubility measurements. The series is classed as physicochemical. How it is done: The solubility measurements are calculated, for a given temperature and for a given excess of potassium hydroxide, in the following way: [formula]
The mark [2] stands for this setting: in an ethanol-water mixture in which ethanol predominates, with an excess of potassium hydroxide.
The mark [3] stands for this setting: excess of potassium hydroxide in alcohol/alcohol or alcohol/water solvent mixtures or pure alcohol.

Counter-ions that a name gives are not always drawn.

Consider `COc1ccc2[nH]c([S+]([O-])Cc3ncc(C)c(OC)c3C)nc2c1` (racemic) [ethanol solvates of the potassium salt of racemic omeprazole], for which the Stability entry in series [1] (setting [2]) was “stable”.

As to `COc1ccc2[nH]c([S+]([O-])Cc3ncc(C)c(OC)c3C)nc2c1` (racemic) [racemic mixture], the Solubility in “Solubility measurements” (absolute ethanol, 1.2 molar equivalents of potassium hydroxide, 26 °C) was 1.3 % by weight; in the series “Solubility measurements” (absolute ethanol, 1.2 molar equivalents of potassium hydroxide, 30 °C), 1.7 % by weight; in “Solubility measurements” (absolute ethanol, 1.2 molar equivalents of potassium hydroxide, 33 °C), 2.2 % by weight; in the series “Solubility measurements” (ethanol/water (90/10% weight/weight), 1.2 molar equivalents of potassium hydroxide, 30 °C), 25 % by weight; in “Solubility measurements” (ethanol/water azeotropic mixture, 1.2 molar equivalents of potassium hydroxide, 29 °C), 8.7 % by weight; in the series “Solubility measurements” (ethanol/water azeotropic mixture, 1.2 molar equivalents of potassium hydroxide, 31 °C), 9.1 % by weight. Further, in “Solubility measurements” (ethanol/water azeotropic mixture, 1.2 molar equivalents of potassium hydroxide, 35 °C), the Solubility turned out to be 13.7 % by weight. Further, the “Solubility (coordinates of the point L)” value in “Solubility measurements” (ethanol/water (93/7% weight/weight), 1.2 molar equivalents of potassium hydroxide, 34.4 °C) is given as 20 % by weight. For the same molecule, in “Solubility measurements” (in ethanol (Example 7)), the “Solubility of the salt (in words)” value is reported as “low”. In addition, the Stability result in series [1] (setting [3]) was “stable”.

Regarding `COc1ccc2nc([S@@+]([O-])Cc3ncc(C)c(OC)c3C)[nH]c2c1` [(S)-omeprazole, 5-methoxy-2-[(S)-[(4-methoxy-3,5-dimethyl-2-pyridinyl)methyl]sulphinyl]-1H-benzimidazole], the Stability entry in series [1] (setting [2]) was “stable”.

Regarding `COc1ccc2nc([S@@+]([O-])Cc3ncc(C)c(OC)c3C)[nH]c2c1` [pure enantiomer (S)-omeprazole, 5-methoxy-2-[(S)-[(4-methoxy-3,5-dimethyl-2-pyridinyl)methyl]sulphinyl]-1H-benzimidazole], in series [1] (setting [3]), the Stability entry is given as “stable”.
